Laboratory results from the NIST ThermoML archive (doi:10.1021/je900279z).

Details: Gas, Oscillating disk viscometry

FC(F)CC(F)(F)F [1,1,1,3,3-pentafluoropropane]
Details	viscosity [mPa·s]
300.81 K, 136 kPa	0.01064
300.88 K, 113 kPa	0.01065
300.93 K, 107 kPa	0.01066
320.26 K, 145 kPa	0.01124
320.33 K, 186 kPa	0.01125
320.53 K, 108 kPa	0.01127
320.58 K, 254 kPa	0.01127
338.61 K, 100 kPa	0.01186
338.61 K, 435 kPa	0.01186
338.98 K, 307 kPa	0.01184
339.02 K, 207 kPa	0.01186
339.15 K, 145 kPa	0.01186
357.15 K, 592 kPa	0.01252
357.23 K, 104 kPa	0.01256
357.23 K, 305 kPa	0.01253
357.38 K, 159 kPa	0.01255
357.39 K, 108 kPa	0.01256
357.4 K, 224 kPa	0.01254
357.43 K, 403 kPa	0.01252
357.43 K, 708 kPa	0.01252
357.52 K, 503 kPa	0.01252
376.25 K, 164 kPa	0.01303
376.38 K, 254 kPa	0.01303
376.39 K, 567 kPa	0.01306
376.43 K, 1071 kPa	0.01318
376.46 K, 107 kPa	0.01304
376.54 K, 348 kPa	0.01304
376.58 K, 676 kPa	0.01308
376.61 K, 457 kPa	0.01305
376.61 K, 945 kPa	0.01314
376.63 K, 1312 kPa	0.01339
376.64 K, 797 kPa	0.0131
395.6 K, 109 kPa	0.01357
395.66 K, 213 kPa	0.01355
395.77 K, 311 kPa	0.01358
395.8 K, 417 kPa	0.01359
395.81 K, 823 kPa	0.0137
395.85 K, 512 kPa	0.01362
395.93 K, 616 kPa	0.01364
395.93 K, 723 kPa	0.01366
396 K, 934 kPa	0.01374
396.02 K, 1280 kPa	0.01396
396.17 K, 1390 kPa	0.01408
396.22 K, 1164 kPa	0.01388
396.24 K, 1044 kPa	0.01386
396.35 K, 1505 kPa	0.01416
396.46 K, 1614 kPa	0.0143

[Ar] [argon]
Details	viscosity [mPa·s]
300.11 K, 400 kPa	0.02271
300.17 K, 103 kPa	0.02279
300.19 K, 199 kPa	0.02265
300.25 K, 302 kPa	0.02265
300.32 K, 832 kPa	0.02286
300.38 K, 616 kPa	0.0228
300.49 K, 2082 kPa	0.02335
300.54 K, 3089 kPa	0.02347
300.56 K, 4050 kPa	0.02364
300.58 K, 4503 kPa	0.02383
300.63 K, 3427 kPa	0.02343
300.66 K, 2759 kPa	0.02338
300.68 K, 1446 kPa	0.02313
300.7 K, 3729 kPa	0.02351
300.72 K, 2458 kPa	0.02338
300.76 K, 1775 kPa	0.02325
300.89 K, 1117 kPa	0.02293
